What was measured:
Human CARM1 (PRMT4) = molecular target: T1, Human CARM1 (PRMT4) (Homo sapiens, UniProt Q86X55); assay: CARM1 enzyme assay on peptide substrates (3H-SAM Flashplate); settings: Biochemical assay; CARM1 0.25 nM, 3H-SAM 30 nM, peptide 250 nM; read-out: Biochem IC50
T1 construct: Flag-CARM1-His was eluted with 200 ug/ml FLAG peptide in buffer A; made in house; host or cells: HEK 293F cells infected with recombinant baculovirus (pFastBacMam)
T1 sequence (Q86X55 1-585 isoform Q86X55-1): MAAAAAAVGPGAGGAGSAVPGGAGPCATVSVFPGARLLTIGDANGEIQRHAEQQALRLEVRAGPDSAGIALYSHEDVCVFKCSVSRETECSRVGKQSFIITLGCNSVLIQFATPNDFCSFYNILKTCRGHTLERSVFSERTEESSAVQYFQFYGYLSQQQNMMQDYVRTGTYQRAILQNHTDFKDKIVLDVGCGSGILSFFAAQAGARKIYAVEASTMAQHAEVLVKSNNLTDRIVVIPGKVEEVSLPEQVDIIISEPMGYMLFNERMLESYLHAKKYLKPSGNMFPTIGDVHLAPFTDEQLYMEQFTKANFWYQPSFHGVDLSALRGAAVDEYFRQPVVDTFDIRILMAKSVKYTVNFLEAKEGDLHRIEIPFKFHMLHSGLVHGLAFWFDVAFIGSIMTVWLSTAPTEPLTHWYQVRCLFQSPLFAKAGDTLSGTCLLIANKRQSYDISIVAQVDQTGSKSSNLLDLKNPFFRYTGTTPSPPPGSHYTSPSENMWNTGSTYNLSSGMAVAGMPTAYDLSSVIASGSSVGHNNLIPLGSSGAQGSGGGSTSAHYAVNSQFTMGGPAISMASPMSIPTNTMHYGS

[1] = system: asymmetric di-methyl PABP1 in RKO cells; assay: RKO methylation assay: In Cell Western (ICW) for asymmetric di-methyl PABP1 (PABP1me2a); settings: Homo sapiens, RKO, 48 h, Cellular-based (PABP1me2a) ICW (In Cell Western) assay
Method in brief: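 In-cell western on compound-exposed RKO cells (48 hours): asymmetric di-methyl PABP1 detected by antibody at 800 nm, DNA content by DRAQ5 at 700 nm. Percent inhibition from signal ratios against DMSO (minimum) and 20 μM reference compound (maximum) wells; IC50 curves fitted from triplicates.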

Row | Structure (SMILES) | IC50 (Human CARM1 (PRMT4)) [µM] | IC50 [1] [µM]
1 | CCC1(C(=O)N2CCC2)CN(c2nc(-c3cc(OC[C@H](O)CNC)ccc3Cl)nc(-c3c(C)noc3C)c2C)C1 [Example 189] | 0.0057 | 0.246
2 | CNC[C@@H](O)COc1ccc(Cl)c(-c2nc(-c3c(C)noc3C)c(C)c(N3Cc4cnn(C5COC5)c4C3)n2)c1 [Example 125] | 0.0065 | 0.15
3 | CNC[C@@H](O)COc1ccc(Cl)c(-c2nc(-c3c(C)noc3C)c(C)c(N3CC4(CC(N(C)C5CC5)C4)C3)n2)c1 [Example 281] | 0.00104 | 0.0792
4 | CNC[C@@H](O)COc1ccc(Cl)c(-c2nc(-c3c(C)noc3C)c(C)c(N3CC4(C3)CC(OC)(C(F)F)C4)n2)c1 [Example 217] | 0.0047 | 0.101
5 | CNC[C@@H](O)COc1ccc(Cl)c(-c2nc(-c3c(C)noc3C)c(C)c(N3CC4(CCN(C5COC5)C4)C3)n2)c1 [Example 50] | 0.0088 | 0.155
6 | CNC[C@@H](O)COc1ccc(Cl)c(-c2nc(-c3c(C)noc3C)c(C)c(N3Cc4nccc(C)c4C3)n2)c1 [Example 164] | 0.0022 | 0.055
7 | CNC[C@@H](O)COc1ccc(Cl)c(-c2nc(-c3c(C)noc3C)c(C)c(N3CC4(CC(OCC(F)F)C4)C3)n2)c1 [Example 134] | 0.0085 | 0.045
8 | CNC[C@@H](O)COc1ccc(Cl)c(-c2nc(-c3c(C)c(Br)nn3C)c(C)c(N3CC4(CN(CC(F)F)C4)C3)n2)c1 [Example 284] | 0.00236 | 0.0392
9 | CNC[C@@H](O)COc1ccc(Cl)c(-c2nc(-c3c(C)noc3C)c(C)c(N3CC4(CCC(C(=O)N5CC(OC)C5)CC4)C3)n2)c1 [Example 173] | 0.005 | 0.408
10 | CNC[C@@H](O)COc1ccc(Cl)c(-c2nc(-c3c(C)c(Br)nn3C)c(C)c(N3CC4(CC(C#N)C4)C3)n2)c1 [Example 333] | 0.00246 | 0.0644
11 | CNC[C@@H](O)COc1ccc(Cl)c(-c2nc(-c3c(C)noc3C)c(C)c(N3CC4=C(CN(CC(F)(F)F)CC4)C3)n2)c1 [Example 247] | 0.004 | 0.062
12 | CNC[C@@H](O)COc1ccc(Cl)c(-c2nc(-c3c(C)noc3C)c(C)c(N3CC4(CCN4CC(F)F)C3)n2)c1 [Example 108] | 0.0183 | 0.164
13 | CCOc1ncc2c(n1)CN(c1nc(-c3cc(OC[C@H](O)CNC)ccc3Cl)nc(-c3c(C)noc3C)c1C)C2 [Example 72] | 0.0029 | 0.012
14 | CNC[C@@H](O)COc1ccc(Cl)c(-c2nc(-c3c(C)noc3C)c(C)c(N3Cc4cnc(N(C)C)nc4C3)n2)c1 [Example 158] | 0.0029 | 0.018
15 | CNC[C@@H](O)COc1ccc(Cl)c(-c2nc(-c3c(C)noc3C)c(C)c(N3CC4(CC(O)C4)C3)n2)c1 [Example 246] | 0.0067 | 0.352
16 | CNC[C@@H](O)COc1ccc(Cl)c(-c2nc(-c3c(C)noc3C)c(C)c(N3CC4(CCC(OC(F)(F)F)CC4)C3)n2)c1 [Example 234] | 0.0061 | 0.105
17 | CNC[C@@H](O)COc1ccc(Cl)c(-c2nc(-c3c(C)noc3C)c(C)c(N3CC4(CCN(S(C)(=O)=O)C4)C3)n2)c1 [Example 49] | 0.0077 | 0.399
18 | CNC[C@@H](O)COc1ccc(Cl)c(-c2nc(-c3c(Br)cnn3C)c(C)c(N3CC4(CN(CC(F)(F)F)C4)C3)n2)c1 [Example 267] | 0.00897 | 0.121
19 | CNC[C@@H](O)COc1ccc(Cl)c(-c2nc(-c3c(C)noc3C)c(C)c(N3CC(C)(C(=O)N4CCC4)C3)n2)c1 [Example 187] | 0.0058 | 0.337
20 | CNC[C@@H](O)COc1ccc(Cl)c(-c2nc(-c3c(C)noc3C)c(C)c(N3Cc4cnc(OC5CCOCC5)nc4C3)n2)c1 [Example 166] | 0.0051 | 0.049
21 | CNC[C@@H](O)COc1ccc(Cl)c(-c2nc(-c3c(C)noc3C)c(C)c(N3C[C@H]4C[C@@H]3CN4CC(F)(F)F)n2)c1 [Example 151] | 0.0121 | 0.668
22 | CNC[C@@H](O)COc1ccc(Cl)c(-c2nc(-c3c(C)noc3C)c(C)c(N3Cc4nccc(OCC(F)F)c4C3)n2)c1 [Example 235] | 0.0007 | 0.054
23 | CNC[C@@H](O)COc1ccc(Cl)c(-c2nc(-c3c(Cl)cnn3C)c(C)c(N3Cc4cnc(N5CCC5)nc4C3)n2)c1 [Example 340] | 0.002 | 0.0175
24 | CNC[C@@H](O)COc1ccc(Cl)c(-c2nc(-c3c(C)noc3C)c(C)c(N3CCN(CC(F)(F)F)CC3)n2)c1 [Example 201] | 0.0048 | 0.295

Second part, the compound after the results:

Row | IC50 (Human CARM1 (PRMT4)) [µM] | IC50 [1] [µM] | Structure (SMILES)
25 | 0.0047 | 0.111 | CNC[C@@H](O)COc1ccc(C(F)(F)F)c(-c2nc(-c3c(C)noc3C)c(C)c(N3Cc4cnn(C(C)C)c4C3)n2)c1 [Example 23]
26 | 0.0021 | 0.056 | CNC[C@@H](O)COc1ccc(Cl)c(-c2nc(-c3c(C)cnn3C)c(C)c(N3Cc4cccnc4C3)n2)c1 [Example 82]
27 | 0.0044 | 0.023 | CNC[C@@H](O)COc1ccc(Cl)c(-c2nc(-c3c(C)c(Br)nn3C)c(C)c(N3CC4(CN(CC(F)(F)F)C4)C3)n2)c1 [Example 215]
28 | 0.0056 | 0.112 | CNC[C@@H](O)COc1ccc(Cl)c(-c2nc(-c3c(C)noc3C)c(C)c(N3CC4(C3)CC(F)(F)C4)n2)c1 [Example 78]
29 | 0.0049 | 0.348 | CNC[C@@H](O)COc1ccc(Cl)c(-c2nc(-c3c(C)noc3C)c(C)c(N3CCN(C(=O)OCC(F)F)CC3)n2)c1 [Example 232]
30 | 0.0041 | 0.081 | CNC[C@@H](O)COc1ccc(Cl)c(-c2nc(-c3c(C)noc3C)c(C)c(N3Cc4c(C)nn(C(C)C)c4C3)n2)c1 [Example 12]
31 | 0.0056 | 0.221 | CNC[C@@H](O)COc1ccc(Cl)c(-c2nc(-c3c(C)noc3C)c(C)c(N3C[C@]4(C)CN(CC(F)F)C[C@]4(C)C3)n2)c1 [Example 71]
32 | 0.00408 | 0.076 | CNC[C@@H](O)COc1ccc(Cl)c(-c2nc(-c3c(C)noc3C)c(C)c(N3CC4(CC(N(C)CC(F)F)C4)C3)n2)c1 [Example 289]
33 | 0.0011 | 0.083 | CNC[C@@H](O)COc1cccc(-c2nc(-c3c(C)c(Cl)nn3C)c(C)c(N3Cc4cccnc4C3)n2)c1 [Example 85]
34 | 0.0099 | 0.042 | CNC[C@@H](O)COc1ccc(Cl)c(-c2nc(-c3c(C)noc3C)c(C)c(N3CC4(CC(OC(C)C)C4)C3)n2)c1 [Example 133]
35 | 0.0046 | 0.093 | CNC[C@@H](O)COc1ccc(Cl)c(-c2nc(-c3c(C)noc3C)c(C)c(N3Cc4cnn(C5CCOCC5)c4C3)n2)c1 [Example 135]
36 | 0.0093 | 0.445 | CC[C@H]1CN(c2nc(-c3cc(OC[C@H](O)CNC)ccc3Cl)nc(-c3c(C)noc3C)c2C)CCN1CC(F)F [Example 225]
37 | 0.00228 | 0.0305 | CNC[C@@H](O)COc1ccc(Cl)c(-c2nc(-c3c(Cl)cnn3C)c(C)c(N3CC4=C(CN(C(=O)OC)C4)C3)n2)c1 [Example 335]
38 | 0.0088 | 0.389 | CNC[C@@H](O)COc1ccc(Cl)c(-c2nc(-c3c(C)noc3C)c(C)c(N3C[C@@H]4C[C@H]3CN4CC(F)(F)F)n2)c1 [Example 120]
39 | 0.0036 | 0.087 | CNC[C@@H](O)COc1ccc(Cl)c(-c2nc(-c3c(C)noc3C)c(C)c(N3CC4=C(CN(C(=O)N(C)C)C4)C3)n2)c1 [Example 177]
40 | 0.00503 | 0.0488 | CNC[C@@H](O)COc1ccc(Cl)c(-c2nc(-c3c(C)c(Cl)nn3C)c(C)c(N3CC4(CC(OC(C)C)C4)C3)n2)c1 [Example 274]
41 | 0.002 | 0.015 | CNC[C@@H](O)COc1ccc(Cl)c(-c2nc(-c3c(C)noc3C)c(C)c(N3Cc4cnc(N5CC(F)C5)nc4C3)n2)c1 [Example 145]
42 | 0.00631 | 0.0329 | CNC[C@@H](O)COc1ccc(Cl)c(-c2nc(-c3c(C)noc3C)c(C)c(N3CC4(C3)CN([C@@H](C)C(F)(F)F)C4)n2)c1 [Example 331]
43 | 0.00209 | 0.105 | CNC[C@@H](O)COc1ccc(Cl)c(-c2nc(-c3c(C)noc3C)c(C)c(N3CC4(CC(N5CC(F)C5)C4)C3)n2)c1 [Example 280]
44 | 0.00386 | 0.0454 | CCOc1ncc2c(n1)CN(c1nc(-c3cc(OC[C@H](O)CNC)ccc3Cl)nc(-c3c(Cl)cnn3C)c1C)C2 [Example 307]
45 | 0.0058 | 0.322 | CNC[C@@H](O)COc1ccc(Cl)c(-c2nc(-c3c(C)noc3C)c(C)c(N3CC4(CCC(C(=O)N5CCOCC5)CC4)C3)n2)c1 [Example 165]
46 | 0.0102 | 0.263 | CNC[C@@H](O)COc1ccc(Cl)c(-c2nc(-c3c(C)noc3C)c(C)c(N3C[C@H]4CN(CC(F)F)C[C@@H]4C3)n2)c1 [Example 29]
